Experimental data taken from patent publication US20250134853A1, “COMPOUNDS AND METHODS FOR USING GALLOYLATED POLYPHENOLS TO TREAT DISEASES MEDIATED BY THIOL ISOMERASES” (Beth Israel Deaconess Medical Center, Inc., priority 2023, published 2025).
pIC50: −log10 of the molar value. Entries after “also recorded” stand apart in the source; their conditions may differ. Like-named read-outs stand apart in the source and are kept apart here.

Experiments:
[1] = target: T1, PDI (Homo sapiens, UniProt P07237); test: Di-eosin-GSSG disulfide reductase assay, PDI; type: biochemical
T1 construct: FLAG; made in house; host or cells: Escherichia coli Origami B (DE3)
Procedure: (§1) Di-eosin-GSSG disulfide reductase assay. The probe di-eosin glutathione disulfide, di-eosin-GSSG, was prepared by incubating 100 μM of GSSG with 1 mM of eosin isothiocyanate in 100 mM potassium phosphate containing 2 mM EDTA (pH 7.4), at 25° C. overnight in the dark. The mixture was passed down a PD-10 column and different fractions were collected. A fold change of fluorescence (Ex: 520 nm, Em: 550 nm) was calculated using samples subjected to either vehicle or 20 mM of DTT. Any fraction with a fold change >5 was kept. Using a stock of 10 mM eosin isothiocyanate, a standard curve was generated and concentration of samples were determined accordingly. Di-eosin-GSSG cleavage of purified thiol isomerases and PDI domains was monitored in a 96-well fluorescence plate format. PDI, CGXC-PDI variants, ERp5, ERp57, ERp46 and PDI domains were assayed at 50 nM in the presence or absence of the indicated small molecules. The assay included a thiol isomerase assay buffer (39 mM KH2PO4, 61 mM K2HPO4, 2 mM EDTA, 5 M DTT, pH 7.4) and 150 nM of the di-eosin-GSSG probe. The increase in fluorescence was determined for 60 min by excitation at 520 nm and emission at 550 nm in a Synergy Biotek 4. The reduction of 150 nM di-eosin-GSSG by 5 μM DTT in the presence or absence of mentioned small molecule or proteins served as a negative control.

[2] = target: T1, PDI; test: Insulin reductase assay; type: biochemical; conditions: 20 μM
Procedure: Insulin reductase assay. Insulin was prepared by mixing 12.5 mg/mL insulin in 50 mM Tris-HCl, pH 8. 1 M HCl was carefully added to drop the pH to 2.0 for solution clarification. Once the solution clarifies, 1 M NaOH was added to rapidly adjust the pH back to 8.0. The solution was then adjusted to 1.5 mM (10 mg/mL) with 50 mM Tris-HCl, aliquoted and stored in −20° C. until use. 2× concentrations of thiol isomerases were prepared (final concentrations as indicated in each assay) and mixed with 1.2 mM DTT (final 0.3 mM) and 0.4 mM insulin (final 0.1 mM) using a thiol isomerase activity assay buffer. Insulin precipitation from enzyme-mediated reduction was assayed in 96-well clear bottom plates at 650 nm absorption.

[3] = test system: PDI domain fragments (a, a′, ab, abb′, b′xa′); test: Di-eosin-GSSG assay on isolated PDI domain fragments; type: biochemical; conditions: for inhibition of isolated a′ domain cleavage of di-eosin-GSSG: 20 μM
Procedure: as §1

[4] = test system: recombinant PDI, ERp57, and ERp5; test: Di-eosin-GSSG assay, thiol isomerases at 20 μM compound; type: biochemical; conditions: 15 minute incubation
[5] = test system: thrombus formation in carotid artery after FeCl3; test: Ferric chloride thrombosis model; type: in vivo, C57Bl/6J mice; conditions: punicalagin by oral gavage
Procedure: Wildtype C57Bl/6J mice were exposed to 100 μg/g punicalagin via oral gavage (n=5) or vehicle (n=7). The carotid artery was surgically isolated, exposed to 10% w/v FeCl3 for 3 min, and visualized by fluorescence microscopy. Time to occlusion was monitored.
Ferric chloride thrombosis model. Thrombus formation induced by ferric chloride was assayed as previously described in Li W, et al. Circ. Res. 115:997-1006, 2014. The mice were treated by oral gavage with 100 μg/g punicalagin or vehicle control for 90 min prior to injury. Before the 90 min time point, the mice were anesthetized with a cocktail of 125 mg/kg ketamine and 12 mg/kg xylazine. The left jugular vein was cannulated for infusion of a DyLight 649 conjugated antibody against GPIbβ (Emfret Analytics; 0.1 μg/g) and 50 mg/kg pentobarbital for maintenance anesthetics. […] Thrombi formation was observed using a 10×0.3 NA water immersion objective mounted to an AX-70 fluorescence microscope (Olympus Japan) equipped with a CCD camera (ORCA Flash 4.0, Hamamatsu Photonics, Japan). Data were analyzed by Slidebook 6.0 (Intelligent Imaging Innovations).
Punicalagin inhibits thrombus formation. […] The ability of orally delivered punicalagin to inhibit thrombus formation following vascular injury was assessed. […] Vessel patency was visualized by fluorescence microscopy using anti-GPIbβ antibody to monitor for vascular occlusion. […]

[6] = target: T2, SARS-CoV-2 M^pro (Severe acute respiratory syndrome coronavirus 2, UniProt P0DTD1)
[7] = test system: SARS-CoV-2; conditions: cited from earlier work
[8] = test system: bleeding following tail clip; test: Tail clip assay of hemostasis; conditions: punicalagin ingestion
[9] = target: T1, PDI; test: SDS-PAGE molecular weight shift (alkylation of PDI free thiols); type: biochemical
Source text: FIG. 5 is an image of gel showing detection of PDI free thiol by the labeling of acetamido maleimidylstilbene disulfonic acid (AMS), which shifts the protein to a higher apparent molecular weight.
4-acetomido-4′-maleimidylstilbene-2,2′ disulfonic acid (AMS), which shifts the mass of the protein by 500 Da for every cysteine alkylated, was used as a positive control. […] N-ethylmaleimide (NEM) was used for a control experiment because covalent alkylation of the free thiols will expectedly prevent PDI activity (FIG. 6A).

[10] = target: T3, ERp5 (Homo sapiens, UniProt Q15084); test: Di-eosin-GSSG disulfide reductase assay, ERp5; type: biochemical; conditions: 20 μM
T3 construct: recombinant His-tagged full-length ERp5, ERp72; His-tag; made in house; host or cells: Escherichia coli Origami B (DE3)
T3 sequence (Q15084 20-440): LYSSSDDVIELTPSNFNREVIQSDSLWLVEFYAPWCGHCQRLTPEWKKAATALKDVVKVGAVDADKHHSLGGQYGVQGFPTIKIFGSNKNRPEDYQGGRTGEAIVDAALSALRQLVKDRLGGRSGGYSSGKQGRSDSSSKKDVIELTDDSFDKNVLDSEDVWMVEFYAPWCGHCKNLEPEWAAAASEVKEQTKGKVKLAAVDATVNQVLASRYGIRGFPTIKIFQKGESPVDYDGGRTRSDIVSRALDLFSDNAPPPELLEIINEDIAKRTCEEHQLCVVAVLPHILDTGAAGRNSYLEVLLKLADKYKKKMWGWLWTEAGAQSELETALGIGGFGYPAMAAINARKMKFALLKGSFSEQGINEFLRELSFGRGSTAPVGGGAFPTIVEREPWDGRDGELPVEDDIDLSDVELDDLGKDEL
Source text: Recombinant protein purification. Recombinant ‘double-tagged’ (streptavidin-binding protein-tagged and FLAG-tagged) full-length PDI, ERp57, recombinant His-tagged full-length ERp5, ERp72, PDI domain fragments, and PDI mutant were cloned into a pET-15b vector at the NdeI and BamHI sites and transformed into Escherichia coli Origami B (DE3) cells (EMD Chemicals). The recombinant proteins were expressed and isolated by affinity chromatography with complete His-Tag purification resin (Roche Applied Science) or Pierce High-Capacity Streptavidin Agarose beads and purified on a Superdex 200 (GE Healthcare).
Di-eosin-GSSG disulfide reductase assay. […] Any fraction with a fold change >5 was kept.

[11] = target: T2, SARS-CoV-2 M^pro; conditions: cited from earlier work
[12] = test system: platelets; conditions: cited from earlier work
[13] = Table 1, IC50 curves on PDI activity (FIGS. 13B-E, 17A-E), read-out: Relative PDI inhibition

T1 sequence (P07237 18-508): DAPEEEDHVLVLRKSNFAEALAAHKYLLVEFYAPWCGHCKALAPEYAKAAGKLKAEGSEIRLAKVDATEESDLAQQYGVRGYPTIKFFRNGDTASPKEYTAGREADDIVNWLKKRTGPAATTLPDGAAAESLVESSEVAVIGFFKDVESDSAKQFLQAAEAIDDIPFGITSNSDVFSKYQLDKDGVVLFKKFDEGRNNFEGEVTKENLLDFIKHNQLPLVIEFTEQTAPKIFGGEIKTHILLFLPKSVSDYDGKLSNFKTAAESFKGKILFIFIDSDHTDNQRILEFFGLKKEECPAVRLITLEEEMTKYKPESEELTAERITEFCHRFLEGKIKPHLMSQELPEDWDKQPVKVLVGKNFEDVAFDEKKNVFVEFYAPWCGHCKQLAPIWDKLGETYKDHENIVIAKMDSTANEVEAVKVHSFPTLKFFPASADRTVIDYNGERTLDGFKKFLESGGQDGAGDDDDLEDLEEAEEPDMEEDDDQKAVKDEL

Compound	pIC50 [1, 13]	inhibition of isolated a′ domain cleavage of di-eosin-GSSG [3]	inhibition of thiol isomerases (PDI, ERp57, ERp5) in words [4]	Inhibition of viral replication (cell system in which shown) [7]	inhibition of PDI (in words) [1]	further results
O=C1O[C@H]2[C@@H]3OC(=O)c4cc(O)c(O)c(O)c4-c4c(O)c(O)c5oc(=O)c6c(c(O)c(O)c7oc(=O)c4c5c76)-c4c(cc(O)c(O)c4O)C(=O)OC[C@H]3OC(O)[C@@H]2OC(=O)c2cc(O)c(O)c(O)c2-c2c1cc(O)c(O)c2O (mixture of isomers) [Punicalagin]	4.72	inhibited the ability of isolated a′ domain to cleave di-eosin-GSSG	strong inhibition of thiol isomerases	293T-hACE2 and NIC-H460	–	inhibition of the ability of PDI to reduce insulin [2]: inhibited the ability of PDI to reduce insulin; inhibition of thiol isomerases (PDI, ERp57, ERp5) in words ([4]; listed as punicalagin): strong thiol isomerase inhibition; vessels that never occluded ([5]; 10% FeCl3 for 3 min): ~50%; time for occlusion of vessels that clotted ([5]; compared to controls): consistently prolonged; pIC50 ([6]; read-out: SARS-CoV-2 M^pro inhibition; literature values (Table 2); cited from earlier work): 5.24; inhibition of SARS-CoV-2 / infection (in words) [7]: inhibits both SARS-CoV-2 M^pro and omicron variants of SARS-CoV-2 infection; cessation of bleeding, Kaplan Meier curves [8]: prolonged bleeding; total bleeding time ([8]; 1 mm diameter tail transection): 110 s
CC(=O)Nc1ccc(C=Cc2ccc(N3C(=O)C=CC3=O)cc2S(=O)(=O)O)c(S(=O)(=O)O)c1 [AMS, 4-acetomido-4′-maleimidylstilbene-2,2′ disulfonic acid, reference compound]	–	–	–	–	–	shift in molecular weight of PDI in SDS polyacrylamide gel [9]: induced a slight increase in molecular mass
O=C(O[C@@H]1Cc2c(O)cc(O)cc2O[C@H]1c1ccc(O)c(O)c1)c1cc(O)c(O)c(O)c1 [Catechin 3-gallate]	< 4.70	–	some inhibition, particularly of ERp5	–	–	activity against ERp5 (in words) [10]: had activity against ERp5
Oc1cc(O)c2c(c1)O[C@H](c1cc(O)c(O)c(O)c1)[C@H](O)C2 [EGC, epigallocatechin]	< 3.30	–	relatively little activity	–	did not inhibit PDI; also recorded: inactive compounds against PDI	–
O=C(O[C@@H]1Cc2c(O)cc(O)cc2O[C@@H]1c1cc(O)c(O)c(O)c1)c1cc(O)c(O)c(O)c1 [EGCG, epigallocatechin gallate]	3.61	–	relatively little activity	–	did not inhibit PDI; also recorded: inactive compounds against PDI	–
O=C(O)c1cc(O)c(O)c(O)c1 [Gallic Acid, 3,4,5-trihydroxybenzoic acid]	–	–	Neither pinocembrin, gallic acid nor glucose showed substantial activity against thiol isomerases	–	inactive compounds against PDI	pIC50 [1]: < 3.30; inhibition of PDI (in words) ([1]; listed as gallate): failed to inhibit PDI
O=C1C[C@@H](c2ccccc2)Oc2cc(O)cc(O)c21 [Pinocembrin]	< 3.30	–	no activity	–	failed to inhibit PDI	–
O=C(OC[C@H]1O[C@@H](OC(=O)c2cc(O)c(O)c(OC(=O)c3cc(O)c(O)c(O)c3)c2)[C@H](OC(=O)c2cc(O)c(O)c(OC(=O)c3cc(O)c(O)c(O)c3)c2)[C@@H](OC(=O)c2cc(O)c(O)c(OC(=O)c3cc(O)c(O)c(O)c3)c2)[C@@H]1OC(=O)c1cc(O)c(O)c(OC(=O)c2cc(O)c(O)c(O)c2)c1)c1cc(O)c(O)c(OC(=O)c2cc(O)c(O)c(O)c2)c1 [Tannic acid]	5.07	inhibited the ability of isolated a′ domain to cleave di-eosin-GSSG	potently inhibited all thiol isomerases tested	293T-hACE2 and NIC-H460	inhibit PDI	inhibition of the ability of PDI to reduce insulin [2]: inhibited the ability of PDI to reduce insulin; inhibition of SARS-CoV-2 / infection (in words) [7]: blocks SARS-CoV-2 virus infection in 293T cells expressing hACE2; Modeling shows gallic acid interaction with His41 or Glu166 [11]: His41; Glu166; hydrogen bonding with M^pro in published molecular dynamic simulations [11]: hydrogen bonding of TA with M^pro Cys145; antiplatelet activities [12]: have antiplatelet activities
O=C(O[C@@H]1Cc2c(O)cc(O)cc2O[C@@H]1c1cc(=O)c(O)c2c(O)c(O)cc([C@H]3Oc4cc(O)cc(O)c4C[C@H]3O)c2c1)c1cc(O)c(O)c(O)c1 [Theaflavin 3-gallate]	5.47	inhibited the ability of isolated a′ domain to cleave di-eosin-GSSG	strong inhibition of all three thiol isomerases	Vero Cells	–	inhibition of the ability of PDI to reduce insulin [2]: inhibited the ability of PDI to reduce insulin; pIC50 ([6]; literature values (Table 2); read-out: SARS-CoV-2 M^pro inhibition; cited from earlier work): 4.73; reduction of viral counts ([7]; Vero cell assay): 75%
O=c1c(O)cc([C@H]2Oc3cc(O)cc(O)c3C[C@H]2O)cc2c([C@H]3Oc4cc(O)cc(O)c4C[C@H]3O)cc(O)c(O)c12 [Theaflavin]	< 3.30	–	poor inhibition	–	failed to inhibit PDI; also recorded: inactive compounds against PDI	–
O=c1cc(-c2ccc(O)cc2)oc2cc(O)cc(O)c12 [apigenin, reference compound]	–	–	–	–	–	inhibition of SARS-CoV-2 / infection (in words) [7]: inhibitors of SARS-CoV-2
Catechin	–	–	–	–	–	activity against ERp5 (in words) [10]: had activity against ERp5
theaflavin 3-3′-digallate [Theaflavin 3,3′-gallate]	–	inhibited the ability of isolated a′ domain to cleave di-eosin-GSSG	strong inhibition of all three thiol isomerases	VeroE6/TMPRSS2	–	inhibition of isolated PDI fragments ([3]; a, ab, b′xa′, abb′ fragments, PGHG at 10 μM): inhibited isolated a and a′ fragments as well as ab, b′xa′ and abb′x fragments
